From patent publication US10017713B2, “Fluorinated surfactant containing compositions” (3M INNOVATIVE PROPERTIES COMPANY, priority 2014, dated 2018)

Legend:
[1] = Surfactant solubility in hydrofluoroether (HFE) solvents by visual clarity; format: physicochemical
Experimental: A series of C4F9SO2N-based fluorochemical surfactants were examined to determine their solubility in various hydrofluoro ether (HFE) solvents, including four segregated HFEs (Novec 7100, 7200, 7300, and 7500 available from 3M Company, St Paul, Minn.), one non-segregated HFE (PF-7600 available from 3M Company), and one HFE-Alcohol blend (Novec 71IPA available from 3M Company). Solubility was determined by preparing mixtures of each surfactant in the solvent at various concentrations and determining solubility at each concentration by visual inspection based on the clarity of the solutions after thorough mixing at room temperature. Surfactants that were not completely soluble at a given concentration produced hazy mixtures, whereas surfactants that were completely soluble at a given concentration produced clear homogeneous solutions with no haze. The highest concentration of each surfactant to give a clear, homogeneous solution in each HFE solvent (expressed as wt % surfactant dissolved in HFE solvent) was taken as the maximum solubility.

[2] = Cleaning performance: % particle removal from heavily soiled CMOS sensors
Experimental: A study was conducted using Novec 7100 and Novec 71IPA base solvents with and without the soluble surfactants identified above to determine the impact of dissolved surfactant on cleaning performance of the fluids. In some cases a single surfactant was employed. In other cases a mixture of two surfactants was employed. In all cases the total concentration of fluorochemical surfactant employed was 0.20 wt % (or 2000 ppm) in the base fluid. Cleaning results were compared to pure Novec fluid controls containing no surfactant. The cleaning trials were performed on heavily soiled CMOS sensors containing a high pixel density. These sensors are known to be extremely difficult to clean such that they are essentially free of (particle contaminants.
A precision solvent cleaning system (SK-04Y-6008 customized cleaning system from YMPT, Thailand) was used to clean the CMOS sensors using the process outlined below.
The cleaning performance of each cleaning fluid composition was judged based on the percentage of particles originally present on the CMOS surface that were removed by the cleaning fluid after completion of the cleaning process. The percentage of particles removed was determined by optical microscopy inspection of the CMOS sensors before and after cleaning.
The original (heavily soiled) CMOS sensor was first inspected using an optical microscope and a series of Pre-Clean images were recorded. The CMOS sensor was then cleaned in the precision cleaning system using the process described above and the proscribed solvent/surfactant combination. After cleaning, the CMOS sensor was inspected again by optical microscopy and a Post-Clean image recorded to determine particle counts remaining on the sensor. In this way, the % removal of particles after cleaning of CMOS sensors was determined.

[3] = Novec 71IPA, room temperature (23° C.)
[4] = Novec 7100, room temperature (23° C.)
[5] = Novec 7200, room temperature (23° C.)
[6] = Novec 7300, room temperature (23° C.)
[7] = Novec 7500, room temperature (23° C.)
[8] = PF-7600, room temperature (23° C.)
[9] = Novec 71IPA, total surfactant 0.20 wt %

Molecule	Max. Solubility [1, 3] [wt %]	Max. Solubility [1, 4] [wt %]	Max. Solubility [1, 5]	Max. Solubility [1, 6]	Max. Solubility [1, 7] [wt %]	Max. Solubility [1, 8]	% Removal (Percent Particle Removal) [2, 9]	% Removal (Percent Particle Removal) ([2]; Novec 7100, surfactant 0.2 %)	melting point [°C]	solubility in HFE solvents ([1]; room temperature)
O=S(=O)(N(CCOCCO)CCOCCO)C(F)(F)C(F)(F)C(F)(F)C(F)(F)F [FBS(EE)2 (IV), C4F9SO2N(CH2CH2OCH2CH2OH)2]	>10	>10	0.2-0.5 wt %	0.2-0.3 wt %	0.2	8-9 wt %	50-80%	50-80%	–	–
O=S(=O)(N(CCO)CCOCCO)C(F)(F)C(F)(F)C(F)(F)C(F)(F)F [FBSE(EE) (V), C4F9SO2N(CH2CH2OCH2CH2OH) (CH2CH2OH)]	>10	1.5	0.8 wt %	0.9 wt %	0.2	>10 wt %	90-100%	90-100%	45.1	–
O=S(=O)(N(CCO)CCO)C(F)(F)C(F)(F)C(F)(F)C(F)(F)F [FBSEE (IX), C4F9SO2N(CH2CH2OH)2]	8.1	0.06	0.04 wt %	0.03 wt %	–	0.6 wt %	90-100%	–	–	–
CC(O)CN(CCO)S(=O)(=O)C(F)(F)C(F)(F)C(F)(F)C(F)(F)F (stereo not drawn) [FBSEP (VIII), C4F9SO2N(CH2CH2OH)CH2CH(CH3)OH]	>10	4.0	–	1.4 wt %	–	>10 wt %	–	–	–	improved solubility
O=S(=O)(NCCOCCO)C(F)(F)C(F)(F)C(F)(F)C(F)(F)F [H-FBS(EE) (III), C4F9SO2N(H)CH2CH2OCH2CH2OH]	>10	>10	>10 wt %	>10 wt %	>10	>10 wt %	50-80%	50-80%	35.7	–
O=S(=O)(NCCO)C(F)(F)C(F)(F)C(F)(F)C(F)(F)F [H-FBSE (X), C4F9SO2NH(CH2CH2OH)]	>10	0.21	0.16 wt %	0.06 wt %	–	1.5 wt %	50-80%	–	–	–
C4F9SO2N(CH3)(CH2CH2O)7CH3 [FC-4171 (XI), reference compound]	>10	>10	>10 wt %	0.5 wt %	0.1	>10 wt %	50-80%	50-80%	–	–
